ChEMBL document CHEMBL3227942, “Synthetic studies on beta-lactam antibiotics. Part 101. Synthesis of 7beta-[2-carboxy-2-(4-hydroxyphenyl)acetamido]-7alpha-methoxy-3-[[(1-methyl-1H-tetrazol-5-yl)thio]-methyl]-1-oxa-1-dethia-3-cephem-4-carboxylic acid disodium salt (6059-S) and its related 1-oxacephems” (1979)
Converted amounts (≈) assume the structure as drawn.

Tests used:
Type in all cases: functional
Staphylococcus aureus [1] = assay: Antibacterial activity against Staphylococcus aureus 209P JC-1
Staphylococcus aureus [2] = assay: Antibacterial activity against beta-lactamase producing Staphylococcus aureus C-14
Streptococcus pneumoniae = assay: Antibacterial activity against Streptococcus pneumoniae I
Escherichia coli = assay: Antibacterial activity against Escherichia coli NIHJ JC-2
Klebsiella pneumoniae [3] = assay: Antibacterial activity against Klebsiella pneumoniae
Klebsiella pneumoniae [4] = assay: Antibacterial activity against beta-lactamase producing Klebsiella pneumoniae 363
Proteus mirabilis = assay: Antibacterial activity against Proteus mirabilis PR-4
Proteus vulgaris = assay: Antibacterial activity against Proteus vulgaris CN-329
Enterobacter cloacae = assay: Antibacterial activity against Enterobacter cloacae 233
Serratia marcescens = assay: Antibacterial activity against Serratia marcescens ATCC 13880
Pseudomonas aeruginosa = assay: Antibacterial activity against Pseudomonas aeruginosa 24

Row | Structure (SMILES) | MIC (Staphylococcus aureus [1]) [µg/mL] | MIC (Staphylococcus aureus [2]) [µg/mL] | MIC (Streptococcus pneumoniae) [µg/mL] | MIC (Escherichia coli) [µg/mL] | MIC (Klebsiella pneumoniae [3]) [µg/mL] | MIC (Klebsiella pneumoniae [4]) [µg/mL] | MIC (Proteus mirabilis) [µg/mL] | MIC (Proteus vulgaris) [µg/mL] | MIC (Enterobacter cloacae) [µg/mL] | MIC (Serratia marcescens) [µg/mL] | MIC (Pseudomonas aeruginosa) [µg/mL]
1 | CC(=O)OCC1=C(C(=O)O)N2C(=O)[C@@H](NC(=O)Cc3cccs3)[C@H]2SC1 [CEPHALOTHIN] | 0.05 (≈ 0.126 µM) | 0.2 (≈ 0.504 µM) | 0.1 (≈ 0.252 µM) | 6.3 (≈ 15.9 µM) | 0.8 (≈ 2.02 µM) | > 100 | 3.1 (≈ 7.82 µM) | 50 (≈ 126 µM) | > 100 | > 100 | > 100
2 | CC(=O)OCC1=C(C(=O)O)N2C(=O)[C@@H](NC(=O)Cc3cccs3)[C@H]2OC1 | 0.013 (≈ 0.0342 µM) | 0.1 (≈ 0.263 µM) | 0.025 (≈ 0.0657 µM) | 0.8 (≈ 2.1 µM) | 0.2 (≈ 0.526 µM) | > 100 | 0.4 (≈ 1.05 µM) | 50 (≈ 131 µM) | 100 (≈ 263 µM) | > 100 | > 100
3 | Cn1nnnc1SCC1=C(C(=O)O)N2C(=O)[C@@H](NC(=O)[C@H](O)c3ccccc3)[C@H]2OC1 | 0.025 (≈ 0.056 µM) | 0.4 (≈ 0.896 µM) | 0.025 (≈ 0.056 µM) | 0.05 (≈ 0.112 µM) | 0.05 (≈ 0.112 µM) | 100 (≈ 224 µM) | 0.1 (≈ 0.224 µM) | 0.1 (≈ 0.224 µM) | 0.4 (≈ 0.896 µM) | 6.3 (≈ 14.1 µM) | > 100
4 | CO[C@]1(NC(=O)[C@H](OC=O)c2ccccc2)C(=O)N2C(C(=O)O)=C(CSc3nnnn3C)CS[C@@H]21 | 0.8 (≈ 1.54 µM) | 3.1 (≈ 5.96 µM) | 1.6 (≈ 3.07 µM) | 1.6 (≈ 3.07 µM) | 0.8 (≈ 1.54 µM) | 0.8 (≈ 1.54 µM) | 1.6 (≈ 3.07 µM) | 0.8 (≈ 1.54 µM) | 12.5 (≈ 24 µM) | 12.5 (≈ 24 µM) | > 100
5 | CO[C@@]1(NC(=O)[C@H](OC=O)c2ccccc2)C(=O)N2C(C(=O)O)=C(CSc3nnnn3C)CO[C@@H]21 | 0.4 (≈ 0.793 µM) | 0.4 (≈ 0.793 µM) | 0.2 (≈ 0.396 µM) | 0.05 (≈ 0.0991 µM) | 0.1 (≈ 0.198 µM) | 0.1 (≈ 0.198 µM) | 0.2 (≈ 0.396 µM) | 0.2 (≈ 0.396 µM) | 3.1 (≈ 6.14 µM) | 3.1 (≈ 6.14 µM) | > 100
6 | Cn1nnnc1SCC1=C(C(=O)O)N2C(=O)[C@@H](NC(=O)[C@H](O)c3ccccc3)[C@H]2SC1 [CEFAMANDOLE] | 0.1 (≈ 0.216 µM) | 0.4 (≈ 0.865 µM) | 0.1 (≈ 0.216 µM) | 0.4 (≈ 0.865 µM) | 0.4 (≈ 0.865 µM) | > 100 | 0.8 (≈ 1.73 µM) | 0.8 (≈ 1.73 µM) | 3.1 (≈ 6.7 µM) | 50 (≈ 108 µM) | > 100
7 | CO[C@@]1(NC(=O)C(C(=O)[O-])c2ccc(O)cc2)C(=O)N2C(C(=O)[O-])=C(CSc3nnnn3C)CO[C@@H]21.[Na+].[Na+] (some centres not stated) [MOXALACTAM DISODIUM] | 6.3 | 6.3 | 3.1 | 0.1 | 0.1 | 0.05 | 0.1 | 0.1 | 0.2 | 0.4 | 25
